Where two headings read alike, the source gives them in different places. Each block holds one compound with its values, some of them ahead of it.
Tests used:
[1] = Description: A 10 mg/ml aqueous paracetamol solution adjusted to pH 5.5 by sodium hydroxide and buffered at this value by sodium acetate was made isotonic by a sufficient quantity of sodium chloride, then an antioxidant is added to it, in this case 0.20 mg/ml cysteine chlorhydrate. This solution was subjected to bubbling with nitrogen then placed under vacuum (low pressure approx. 550 mm of Hg) before stoppering the bottles. […] After sterilization, the bottles containing this solution were kept for 24 months at 25° C.
[2] = Paracetamol solution with trisodic citrate kept at 40° C. (general statement); type: physicochemical
Description: In particular, in the case of paracetamol, after the addition of trisodic citrate at a concentration of 70 mg/100 ml of solution, the residual cysteine concentration is approximately double than that of preparations without citrate, no coloration appeared, even after 7 weeks at 40° C., and there was no variation in the concentration of paracetamol.

[3] = for coloration: sterilized 121° C. 15 min
Description: A 10 mg/ml aqueous paracetamol solution is prepared. Adjustment to pH 5.5 is carried out by the addition of HCl, and buffering by the addition of sodium hydrogenophosphate.
Deoxygenation is then carried out by bubbling with nitrogen, until a residual oxygen content of approximately 0.2 ppm is obtained. After the bottles are filled with the solution during prolonged bubbling with nitrogen, they are sterilized at 121° C. for 15 minutes.
In another test, the paracetamol solution, after being subjected to bubbling with nitrogen, has been packaged under nitrogen.

[4] = Example III: stability of paracetamol solution with or without citrate ions; type: physicochemical; settings: O2 approx. 0.4 ppm, sterilized
Description: Thus a 10 mg/ml paracetamol solution adjusted to pH 5.5 by hydrochloric acid was subjected to bubbling with nitrogen until an oxygen content of approximately 0.4 ppm was obtained. The bottles were sterilized at 121° C. for 15 minutes and kept at ambient temperature. […] After bubbling with nitrogen, the residual oxygen content is of the order of 0.4 ppm. Afterwards the solution is packaged into bottles under vacuum and sterilized at 121° C. for 15 minutes. The bottles are kept for 67 days at ambient temperature.

[5] = ambient temperature under light, and 70° C. in darkness; nitrogen bubbling, filling under nitrogen, antioxidant added; cited from earlier work
[6] = Example IX: stability of 1% Dobutamine sulphate solution at 50° C.; type: physicochemical
Description: A Dobutamine sulphate solution is prepared by dissolving 1 g Dobutamine in 50 ml of water and 19 ml of a 0.10% sodium ascorbate solution is added, with continuous bubbling of nitrogen. Then 25 mg hydrated cysteine chlorhydrate and 70 mg hydrated sodium citrate are added, then 700 mg sodium chloride to ensure isotonicity. The solution is made up to 100 ml by the addition of distilled water for injectable preparations.
It is filled into 100 ml bottles under nitrogen until the residual oxygen content is below 0.8 ppm. The bottles are then stoppered under vacuum (approx. 10,000 Pa) and sterilized at 121° C. for 20 minutes.
After removal from the autoclave, the bottles are kept in darkness in a thermostatic cupboard at 50° C.
An evaluation is made of absorption at 308 nm as an indication of oxidation into secondary products, the residual oxygen content and the residual cysteine content immediately after sterilization, then after being kept for 14 days at 50° C.
Coloration remains slight and reduces as the pH increases.

[7] = Example VI: buffered paracetamol + cysteine solutions without deoxygenation; type: physicochemical; settings: 10 mg/ml paracetamol + 0.25 mg/ml cysteine, no inert gas, darkness 25° C. 3 days
Description: A quantity of sodium citrate (in the form of dihydrated disodic citrate) was added to 10 mg/ml aqueous paracetamol solutions, made isotonic by NaCl and stabilized by the addition of cysteine hydrochlorhide (0.25 mg/ml) suitable for adjusting the pH to 5.5. […] Comparative solutions were prepared without sodium citrate or replacing the citrate ions by equimolar quantities to those of the citrate, of either sodium acetate, or sodium hydrogenophosphate; in all cases adjusting the pH to a value of 5.5 by the addition of sodium hydroxide or hydrochloric acid.
The solutions were not subjected to bubbling with inert gas (nitrogen) and were kept in darkness at 25° C. for 3 days.

[8] = Example V: residual cysteine in buffered aqueous cysteine solutions; type: physicochemical; settings: 0.25 mg/ml cysteine, approx. 7 ppm O2, darkness 25° C. 3 days
Description: A 0.25 mg/ml aqueous cysteine solution was adjusted to pH 5.5, made isotonic by sodium chloride and buffered using as a buffering agent: dehydrated sodium citrate (0.70 mg/ml), sodium acetate, sodium hydrogenophosphate, in quantities equimolar to that of the citrate. […] They were kept in darkness at 25° C. for 3 days.

[9] = trisodic citrate 70 mg/100 ml, after 7 weeks at 40° C.
[10] = pH 5.5, sodium hydrogenophosphate

paracetamol content ([1]; 0.20 mg/ml cysteine chlorhydrate, O2 approx. 1.5 ppm, sterilized, 24 months at 25° C.): 100 % of the original value
coloration ([1]; 10 mg/ml, pH 5.5, acetate buffer, 0.20 mg/ml cysteine chlorhydrate, vacuum, O2 approx. 1.5 ppm, sterilized, 24 months at 25° C.): colourless
residual cysteine concentration versus preparations without citrate ([2]; trisodic citrate 70 mg/100 ml of solution): approximately double
coloration [2, 9]: no coloration
variation in the concentration of paracetamol [2, 9]: no variation
coloration ([3]; 10 mg/ml, pH 5.5, no antioxidant, O2 approx. 0.2 ppm, 6 months at 25° C.): colourless
paracetamol content ([3]; 10 mg/ml, pH 5.5, no antioxidant, O2 approx. 0.2 ppm, sterilized, 6 months at 25° C.): no change
content of degradation products of paracetamol determined by HPLC ([3]; 6 months, 10 mg/ml, pH 5.5): lower than 0.015 % of the paracetamol
coloration ([3]; packaged under nitrogen, vacuum < 10,000 Pa, O2 0.16 ppm, 8 days at 30° C.): colourless
coloration ([4]; 10 mg/ml with citric acid/sodium citrate, under vacuum, 67 days at ambient temperature): perfectly colourless
coloration ([4]; 10 mg/ml, pH 5.5 by HCl, no citrate, 9 days at ambient temperature): yellow-pink
SMILES: CC(=O)Nc1ccc(O)cc1 [paracetamol]
degradation products of the paracetamol measured by HPLC ([1]; 24 months, 10 mg/ml, pH 5.5): less than 0.02 % of the paracetamol content
time for which aqueous solutions are stable [5]: 48 h

degradation of the Dobutamine in heat ([6]; 1% solution with ascorbate, cysteine, citrate, vacuum, sterilized 121° C. 20 min, kept at 50° C.): no degradation
secondary peaks by liquid chromatography, absorption at 308 nm ([6]; degree decreases as the pH increases): appearance of secondary peaks
coloration ([6]; reduces as the pH increases): slight
SMILES: CC(CCc1ccc(O)cc1)NCCc1ccc(O)c(O)c1 (stereo not drawn) [Dobutamine]

residual cysteine ([7]; pH 5.5, citrate approx. 0.7 mg/ml): 22%
residual cysteine ([7]; pH 5.5, non-buffered): 42%
residual cysteine ([7]; pH 5.5, sodium acetate): 17%
residual cysteine [7, 10]: 21%
residual cysteine content ([8]; pH 5.5, citrate 0.70 mg/ml): lowest
residual cysteine content ([8]; pH 5.5, non-buffered): 15%
residual cysteine content ([8]; pH 5.5, sodium acetate): 18%
residual cysteine content [8, 10]: 21%
SMILES: N[C@@H](CS)C(=O)O [cysteine]

From patent US6992218B2, “Method for obtaining aqueous formulations of oxidation-sensitive active principles” (Pharmatop SCR, priority 2000, dated 2006)
